Reference: US20060183716A1, “2-Methylene-19-nor-(20S-24S)-1alpha,25-dihydroxyvitamin D2” (Wisconsin Alumni Research Foundation, priority 2005, published 2006)

Experiments:
vitamin D receptors = molecular target: T1, vitamin D receptors (Homo sapiens, UniProt P11473); conditions: as described in the '352, '861 and '622 patents; cited from earlier work
T1 sequence (P11473 1-427): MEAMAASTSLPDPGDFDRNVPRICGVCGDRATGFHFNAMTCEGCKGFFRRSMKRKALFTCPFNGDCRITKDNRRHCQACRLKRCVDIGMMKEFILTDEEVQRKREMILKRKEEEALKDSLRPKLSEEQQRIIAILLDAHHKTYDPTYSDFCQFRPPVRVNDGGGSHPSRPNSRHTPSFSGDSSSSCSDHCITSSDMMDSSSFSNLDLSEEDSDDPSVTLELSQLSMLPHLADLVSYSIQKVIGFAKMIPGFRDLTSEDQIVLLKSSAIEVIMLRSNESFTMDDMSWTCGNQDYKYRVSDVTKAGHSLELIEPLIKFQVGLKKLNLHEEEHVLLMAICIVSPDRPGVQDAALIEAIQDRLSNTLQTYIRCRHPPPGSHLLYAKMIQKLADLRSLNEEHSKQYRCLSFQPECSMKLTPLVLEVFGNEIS

cell differentiation = conditions: as described in the '352, '861 and '622 patents; cited from earlier work
calcemic activity = conditions: as described in the '352, '861 and '622 patents; cited from earlier work
[1] = molecular target: T2, full-length recombinant rat vitamin D receptor (Rattus norvegicus, UniProt P13053); experiment: Vitamin D receptor competitive binding with [3H]-1,25-(OH)2-D3; conditions: competition with [3H]-1,25-(OH)2-D3; compared with 1,25(OH)2D3; FIG. 1
T2 construct: Full-length recombinant rat receptor was expressed in E. coli BL21(DE3) Codon Plus RIL cells; histidine tag (C); made in house; host or cells: E. coli BL21(DE3) Codon Plus RIL
T2 sequence (P13053 1-423): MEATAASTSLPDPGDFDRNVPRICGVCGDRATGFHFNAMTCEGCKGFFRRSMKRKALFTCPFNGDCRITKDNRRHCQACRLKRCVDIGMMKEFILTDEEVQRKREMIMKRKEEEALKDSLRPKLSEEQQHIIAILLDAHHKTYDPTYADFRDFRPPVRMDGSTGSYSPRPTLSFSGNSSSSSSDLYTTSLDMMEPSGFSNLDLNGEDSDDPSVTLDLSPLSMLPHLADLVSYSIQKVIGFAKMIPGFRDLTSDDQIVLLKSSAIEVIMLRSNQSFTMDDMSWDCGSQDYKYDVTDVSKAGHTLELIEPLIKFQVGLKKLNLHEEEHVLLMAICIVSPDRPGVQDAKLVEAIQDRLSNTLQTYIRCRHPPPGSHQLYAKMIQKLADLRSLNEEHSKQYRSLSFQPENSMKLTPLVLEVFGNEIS
Description: FIG. 1 is a graph comparing the relative activity of (20S/24S) 2-MD2 and 1,25(OH)2D3 to compete for binding with [^3H]-1,25-(OH)2-D3 to the full-length recombinant rat vitamin D receptor.
Full-length recombinant rat receptor was expressed in E. coli BL21(DE3) Codon Plus RIL cells and purified to homogeneity using two different column chromatography systems. The first system was a nickel affinity resin that utilizes the C-terminal histidine tag on this protein. The protein that was eluted from this resin was further purified using ion exchange chromatography (S-Sepharose Fast Flow). Aliquots of the purified protein were quick frozen in liquid nitrogen and stored at −80° C. until use. For use in binding assays, the protein was diluted in TEDK50 (50 mM Tris, 1.5 mM EDTA, pH 7.4, 5 mM DTT, 150 mM KCl) with 0.1% Chaps detergent. […]
Unlabeled ligands were dissolved in ethanol and the concentrations determined using UV spectrophotometry (1,25(OH)2D3:molar extinction coefficient=18,200 and λmax=265 nm; Analogs: molar extinction coefficient=42,000 and λmax=252 nm). […]
Radiolabeled and unlabeled ligands were added to 100 mcl of the diluted protein at a final ethanol concentration of ≦10%, mixed and incubated overnight on ice to reach binding equilibrium. […] Total binding was determined from the tubes containing only radiolabeled ligand.

[2] = system: Human promyelocytic leukemia (HL60) cells; experiment: HL-60 cell differentiation (nitro blue tetrazolium reduction); type: cell-based; conditions: compared with 1,25(OH)2D3; four days; FIG. 2
Method: FIG. 2 is a graph comparing the percent HL-60 cell differentiation as a function of the concentration of (20S/24S) 2-MD2 with that of 1,25(OH)2D3.
The study drugs were dissolved in ethanol and the concentrations determined using UV spectrophotometry. Serial dilutions were prepared so that a range of drug concentrations could be tested without changing the final concentration of ethanol (≦0.2%) present in the cell cultures.
Human promyelocytic leukemia (HL60) cells were grown in RPMI-1640 medium containing 10% fetal bovine serum. The cells were incubated at 37° C. in the presence of 5% CO2.
HL60 cells were plated at 1.2×10^5 cells/ml. Eighteen hours after plating, cells in duplicate were treated with drug. Four days later, the cells were harvested and a nitro blue tetrazolium reduction assay was performed (Collins et al., 1979; J. Exp. Med. 149:969-974). The percentage of differentiated cells was determined by counting a total of 200 cells and recording the number that contained intracellular black-blue formazan deposits. Verification of differentiation to monocytic cells was determined by measuring phagocytic activity (data not shown).

[3] = system: 24-hydroxylase (24Ohase) gene promoter in ROS 17/2.8 (bone) cells; experiment: In vitro transcription assay (24-hydroxylase promoter luciferase reporter); type: cell-based; conditions: ROS 17/2.8 cells, sixteen hours after dosing, FIG. 3
Method: FIG. 3 is a graph comparing the in vitro transcription activity of (20S/24S) 2-MD2 with that of 1,25(OH)2D3.
Transcription activity was, measured in ROS 17/2.8 (bone) cells that were stably transfected with a 24-hydroxylase (24Ohase) gene promoter upstream of a luciferase reporter gene (Arbour et al., 1998). Cells were given a range of doses. Sixteen hours after dosing the cells were harvested and luciferase activities were measured using a luminometer. RLU=relative luciferase units.

[4] = system: bone calcium mobilization; experiment: Bone calcium mobilization (serum calcium); type: in vivo, Sprague-Dawley rats; conditions: rats on 0.02% Ca diet, four consecutive ip doses; compared with 1,25(OH)2D3; FIG. 4
Description: (§1) FIG. 4 is a bar graph comparing the bone calcium mobilization activity of (20S/24S) 2-MD2 with that of 1,25(OH)2D3. Male, weanling Sprague-Dawley rats were placed on Diet 11 (0.47% Ca) diet +AEK for one week followed by Diet 11 (0.02% Ca) +AEK for 3 weeks. The rats were then switched to a diet containing 0.47% Ca for one week followed by two weeks on a diet containing 0.02% Ca. Dose administration began during the last week on 0.02% calcium diet. Four consecutive ip doses were given approximately 24 hours apart. Twenty-four hours after the last dose, blood was collected from the severed neck and the concentration of serum calcium determined as a measure of bone calcium mobilization. The first 10 cm of the intestine was also collected for intestinal calcium transport analysis using the everted gut sac method.

[5] = system: intestinal calcium transport; experiment: Intestinal calcium transport (everted gut sac method); type: in vivo, Sprague-Dawley rats; conditions: rats on 0.02% Ca diet, four consecutive ip doses, FIG. 5
Description: as §1, with “FIG. 5 is a” for “FIG. 4 is a”, “comparing the intestinal calcium transport” for “comparing the bone calcium mobilization”, “intestinal calcium transport activity of” for “bone calcium mobilization activity of”

Row | binding to the vitamin D receptor relative to native hormone [1] | Molecule | binding activity to vitamin D receptors (vitamin D receptors) | cell differentiation activity (cell differentiation) | calcemic activity as compared to 1α,25-dihydroxyvitamin D3 (calcemic activity) | inducing differentiation of HL-60 cells relative to native hormone [2] | causing transcription relative to 1,25-(OH)2D3 [3] | bone calcium mobilizing activity [4] | intestinal calcium transport [5]
1 | – | C=C1[C@H](O)CC(=C/C=C2\CCC[C@]3(C)[C@@H](CC)CC[C@@H]23)C[C@H]1O [1α-Hydroxy-2-methylene-19-nor-pregnacalciferol] | relatively high | relatively high | little if any | – | – | – | –
2 | – | 1α-hydroxy-2-methylene-19-nor-(20S)-homopregnacalciferol | relatively high | relatively high | little if any | – | – | – | –
3 | almost equal to the native hormone | C=C1[C@H](O)CC(=C/C=C2\CCC[C@]3(C)C([C@@H](C)/C=C/[C@H](C)C(C)(C)O)CC[C@@H]23)C[C@H]1O (stereo in doubt) [2-methylene-19-nor-(20S-24S)-1α,25-dihydroxyvitamin D2] | – | – | – | almost equal to the native hormone | slightly more effective than 1,25-(OH)2D3 | comparable to 1,25(OH)2D3 | does retain some ability to elevate intestinal calcium transport
4 | – | 1α-hydroxy-2-methylene-19-nor-bishomopregnacalciferol | relatively high | relatively high | little if any | – | – | – | –
